In ChEMBL document CHEMBL2375321, “Discovery of 3,3'-diindolylmethanes as potent antileishmanial agents” (Eur J Med Chem, 2013):
In brackets after ≈: the same amount, converted by molar mass. Activity calls are given as the source filed them. Unless noted, the calls are words filed in the database; no cut-off is given here.

Assays:
Vero = assay: Cytotoxicity against african green monkey Vero cells up to 4.6 ug/ml after 48 hrs by neutral red assay; type: cell-based; conditions: chlorocebus sabaeus
Leishmania donovani [1] = assay: Antileishmanial activity against axenic amastigote of Leishmania donovani after 72 hrs by alamar blue assay; type: functional, organism-based
Leishmania donovani [2] = assay: Antileishmanial activity against promastigote of Leishmania donovani after 72 hrs by alamar blue assay; type: functional, organism-based
Cryptococcus neoformans = assay: Antifungal activity against Cryptococcus neoformans ATCC 90113 by CLSI method; type: functional, organism-based
Candida albicans = assay: Antifungal activity against Candida albicans ATCC 90028 by CLSI method; type: functional, organism-based
Aspergillus fumigatus = assay: Antifungal activity against Aspergillus fumigatus ATCC 204305 by CLSI method; type: functional, organism-based
[3] = system: Mycobacterium intracellulare; assay: Antibacterial activity against Mycobacterium intracellulare ATCC 23068 by alamar blue assay; type: functional, organism-based
Staphylococcus aureus [4] = assay: Antibacterial activity against methicillin-resistant Staphylococcus aureus ATCC 33591 by CLSI method; type: functional, organism-based
Staphylococcus aureus [5] = assay: Antibacterial activity against Staphylococcus aureus ATCC 29213 by CLSI method; type: functional, organism-based
[6] = Leishmania donovani, 72 h, read-out: IC50
[7] = Staphylococcus aureus, ATCC 33591, read-out: IC50
[8] = Mycobacterium intracellulare, ATCC 23068
[9] = Mycobacterium intracellulare, ATCC 23068, read-out: IC50

COc1ccc2[nH]cc(C(c3cccs3)c3c[nH]c4ccc(OC)cc34)c2c1
Activity (Vero): Non-toxic | IC90 (Leishmania donovani [1]; Leishmania donovani, 72 h): 84.8 µM | IC50 (Leishmania donovani [1]; [6]): 59 µM | IC90 (Leishmania donovani [2]; Leishmania donovani, 72 h): 65.8 µM | IC50 (Leishmania donovani [2]; [6]): 38.1 µM

O=[N+]([O-])c1ccc(C(c2c[nH]c3ccccc23)c2c[nH]c3ccccc23)cc1
Activity (Vero): Non-toxic | IC90 (Leishmania donovani [1]; Leishmania donovani, 72 h): 72.3 µM | IC50 (Leishmania donovani [1]; [6]): 40.8 µM | IC90 (Leishmania donovani [2]; Leishmania donovani, 72 h): 54.3 µM | IC50 (Leishmania donovani [2]; [6]): 15.9 µM

COc1ccc2[nH]cc(C(c3ccc(O)cc3)c3c[nH]c4ccc(OC)cc34)c2c1
Activity (Vero): Non-toxic | IC90 (Leishmania donovani [1]; Leishmania donovani, 72 h): 76.3 µM | IC50 (Leishmania donovani [1]; [6]): 42.9 µM | IC90 (Leishmania donovani [2]; Leishmania donovani, 72 h): 91 µM | IC50 (Leishmania donovani [2]; [6]): 81.1 µM

COc1ccc2[nH]cc(C(c3ccc([N+](=O)[O-])o3)c3c[nH]c4ccc(OC)cc34)c2c1
Activity (Vero): Non-toxic | IC50 (Leishmania donovani [1]): Not Active | IC90 (Leishmania donovani [1]): inactive | IC90 (Leishmania donovani [2]; Leishmania donovani, 72 h): 60 µM | IC50 (Leishmania donovani [2]; [6]): 37.3 µM

COc1ccc2[nH]cc(C(c3ccc(Br)cc3)c3c[nH]c4ccc(OC)cc34)c2c1
Activity (Vero): Non-toxic | IC50 (Leishmania donovani [1]): Not Active | IC90 (Leishmania donovani [1]): inactive | IC90 (Leishmania donovani [2]; Leishmania donovani, 72 h): 58.5 µM | IC50 (Leishmania donovani [2]; [6]): 32.7 µM

Brc1ccc(C(c2c[nH]c3ccc(I)cc23)c2c[nH]c3ccc(I)cc23)cc1
IC50 (Cryptococcus neoformans): 5.58 µM | MFC (Cryptococcus neoformans): 30.7 µM (≈ 20 µg/mL) | MIC (Cryptococcus neoformans): 30.7 µM (≈ 20 µg/mL) | Activity (Candida albicans): inactive | Activity (Aspergillus fumigatus): inactive | Activity (Vero): Non-toxic | IC90 (Leishmania donovani [1]; Leishmania donovani, 72 h): 46.6 µM | IC50 (Leishmania donovani [1]; [6]): 13.1 µM | IC90 (Leishmania donovani [2]; Leishmania donovani, 72 h): 8.47 µM | IC50 (Leishmania donovani [2]; [6]): 4.49 µM

COc1ccc(C(c2c[nH]c3ccccc23)c2c[nH]c3ccccc23)cc1Br
IC50 [3]: Not Active | MBC [3]: inactive | MIC [3]: inactive | MBC (Staphylococcus aureus [4]): inactive | MIC (Staphylococcus aureus [4]): inactive | IC50 (Staphylococcus aureus [4]; [7]): 31.5 µM | IC50 (Staphylococcus aureus [5]): 7.84 µM | MBC (Staphylococcus aureus [5]): inactive | MIC (Staphylococcus aureus [5]): inactive | Activity (Vero): Non-toxic | IC50 (Leishmania donovani [1]): Not Active | IC90 (Leishmania donovani [1]): inactive | IC90 (Leishmania donovani [2]): inactive | IC50 (Leishmania donovani [2]; [6]): 82.9 µM

COc1ccc2[nH]cc(C(c3cccc4ccccc34)c3c[nH]c4ccc(OC)cc34)c2c1
IC50 [3]: Not Active | MBC [3]: inactive | MIC [3]: inactive | IC50 (Staphylococcus aureus [4]): Not Active | MBC (Staphylococcus aureus [4]): inactive | MIC (Staphylococcus aureus [4]): inactive | IC50 (Staphylococcus aureus [5]): 39.7 µM | MBC (Staphylococcus aureus [5]): inactive | MIC (Staphylococcus aureus [5]): inactive | Activity (Vero): Non-toxic | IC90 (Leishmania donovani [1]): inactive | IC50 (Leishmania donovani [1]; [6]): 33.2 µM | IC90 (Leishmania donovani [2]; Leishmania donovani, 72 h): 82.9 µM | IC50 (Leishmania donovani [2]; [6]): 66.5 µM

COc1ccc2[nH]cc(C(c3c4ccccc4cc4ccccc34)c3c[nH]c4ccc(OC)cc34)c2c1
Activity (Vero): Non-toxic | IC90 (Leishmania donovani [1]): inactive | IC50 (Leishmania donovani [1]; [6]): 39.8 µM | IC90 (Leishmania donovani [2]; Leishmania donovani, 72 h): 64.9 µM | IC50 (Leishmania donovani [2]; [6]): 34.6 µM

COc1ccc2[nH]cc(C(c3ccc(O)c(OC)c3)c3c[nH]c4ccc(OC)cc34)c2c1
Activity (Vero): Non-toxic | IC50 (Leishmania donovani [1]): Not Active | IC90 (Leishmania donovani [1]): inactive | IC50 (Leishmania donovani [2]): Not Active | IC90 (Leishmania donovani [2]): inactive

O=C(O)c1cn(C2CC2)c2cc(N3CCNCC3)c(F)cc2c1=O [CIPROFLOXACIN]
MBC [3, 8]: 3.02 µM (≈ 1 µg/mL) | IC50 [3, 9]: 1 µM

Ic1ccc2[nH]cc(C(c3c4ccccc4cc4ccccc34)c3c[nH]c4ccc(I)cc34)c2c1
Activity (Vero): Non-toxic | IC50 (Leishmania donovani [1]): Not Active | IC90 (Leishmania donovani [1]): inactive | IC50 (Leishmania donovani [2]): Not Active | IC90 (Leishmania donovani [2]): inactive

COc1ccc2[nH]cc(C(c3ccc([N+](=O)[O-])cc3)c3c[nH]c4ccc(OC)cc34)c2c1
Activity (Vero): Non-toxic | IC90 (Leishmania donovani [1]; Leishmania donovani, 72 h): 64.2 µM | IC50 (Leishmania donovani [1]; [6]): 14.7 µM | IC90 (Leishmania donovani [2]; Leishmania donovani, 72 h): 18.8 µM | IC50 (Leishmania donovani [2]; [6]): 12.1 µM

Ic1ccc2[nH]cc(C(c3cccc4ccccc34)c3c[nH]c4ccc(I)cc34)c2c1
Activity (Vero): Non-toxic | IC50 (Leishmania donovani [1]): Not Active | IC90 (Leishmania donovani [1]): inactive | IC50 (Leishmania donovani [2]): Not Active | IC90 (Leishmania donovani [2]): inactive

Fc1cc(F)cc(C(c2c[nH]c3ccc(I)cc23)c2c[nH]c3ccc(I)cc23)c1
Activity (Vero): Non-toxic | IC90 (Leishmania donovani [1]; Leishmania donovani, 72 h): 44.5 µM | IC50 (Leishmania donovani [1]; [6]): 23.2 µM | IC90 (Leishmania donovani [2]; Leishmania donovani, 72 h): 41.2 µM | IC50 (Leishmania donovani [2]; [6]): 24.2 µM

O=[N+]([O-])c1ccc(C(c2c[nH]c3ccc(I)cc23)c2c[nH]c3ccc(I)cc23)cc1
Activity (Vero): Non-toxic | IC90 (Leishmania donovani [1]; Leishmania donovani, 72 h): 38.4 µM | IC50 (Leishmania donovani [1]; [6]): 8.37 µM | IC90 (Leishmania donovani [2]; Leishmania donovani, 72 h): 10.2 µM | IC50 (Leishmania donovani [2]; [6]): 7.88 µM

C[C@@H]1[C@H](O)[C@@H](C)/C=C/C=C/C=C/C=C/C=C/C=C/C=C/[C@H](O[C@@H]2O[C@H](C)[C@@H](O)[C@H](N)[C@@H]2O)C[C@@H]2O[C@](O)(C[C@@H](O)C[C@@H](O)[C@H](O)CC[C@@H](O)C[C@@H](O)CC(=O)O[C@H]1C)C[C@H](O)[C@H]2C(=O)O [AMPHOTERICIN B]
IC50 (Cryptococcus neoformans): 0.85 µM | MFC (Cryptococcus neoformans): 1.35 µM (≈ 1.25 µg/mL) | MIC (Cryptococcus neoformans): 1.35 µM (≈ 1.25 µg/mL) | Activity (Candida albicans): inactive | Activity (Aspergillus fumigatus): inactive | IC90 (Leishmania donovani [1]; Leishmania donovani, 72 h): […] | IC90 (Leishmania donovani [2]; Leishmania donovani, 72 h): 0.35 µM

N=C(N)c1ccc(OCCCCCOc2ccc(C(=N)N)cc2)cc1 [PENTAMIDINE]
IC90 (Leishmania donovani [1]; Leishmania donovani, 72 h): 14.3 µM | IC90 (Leishmania donovani [2]; Leishmania donovani, 72 h): 6.21 µM | IC50 (Leishmania donovani [2]; [6]): 3.29 µM

Clc1cccc(Cl)c1C(c1c[nH]c2ccc(I)cc12)c1c[nH]c2ccc(I)cc12
Activity (Vero): Non-toxic | IC50 (Leishmania donovani [1]): Not Active | IC90 (Leishmania donovani [1]): inactive | IC50 (Leishmania donovani [2]): Not Active | IC90 (Leishmania donovani [2]): inactive

COc1ccc2[nH]cc(C(c3ccc(F)c(Br)c3)c3c[nH]c4ccc(OC)cc34)c2c1
MBC [3]: inactive | MIC [3, 8]: 41.8 µM (≈ 20 µg/mL) | IC50 [3, 9]: 39.6 µM | MBC (Staphylococcus aureus [4]): inactive | MIC (Staphylococcus aureus [4]): inactive | IC50 (Staphylococcus aureus [4]; [7]): 4.67 µM | IC50 (Staphylococcus aureus [5]): 3.45 µM | MBC (Staphylococcus aureus [5]): inactive | MIC (Staphylococcus aureus [5]): 10.5 µM (≈ 5.03 µg/mL) | Activity (Vero): Non-toxic | IC90 (Leishmania donovani [1]; Leishmania donovani, 72 h): 66.8 µM | IC50 (Leishmania donovani [1]; [6]): 47.6 µM | IC90 (Leishmania donovani [2]; Leishmania donovani, 72 h): 46.6 µM | IC50 (Leishmania donovani [2]; [6]): 15.8 µM

COc1cc(C(c2c[nH]c3ccccc23)c2c[nH]c3ccccc23)ccc1O
Activity (Vero): Non-toxic | IC90 (Leishmania donovani [1]): inactive | IC50 (Leishmania donovani [1]; [6]): 75 µM | IC90 (Leishmania donovani [2]; Leishmania donovani, 72 h): 98.9 µM | IC50 (Leishmania donovani [2]; [6]): 86 µM

c1ccc2c(C(c3c[nH]c4ccccc34)c3c[nH]c4ccccc34)c3ccccc3cc2c1
Activity (Vero): Non-toxic | IC90 (Leishmania donovani [1]): inactive | IC50 (Leishmania donovani [1]; [6]): 53.4 µM | IC90 (Leishmania donovani [2]; Leishmania donovani, 72 h): 91.9 µM | IC50 (Leishmania donovani [2]; [6]): 82 µM

O=[N+]([O-])c1ccc(C(c2c[nH]c3ccc(I)cc23)c2c[nH]c3ccc(I)cc23)o1
IC50 [3]: Not Active | MBC [3]: inactive | MIC [3]: inactive | MBC (Staphylococcus aureus [4]): inactive | MIC (Staphylococcus aureus [4]; Staphylococcus aureus, ATCC 33591): 32.8 µM (≈ 20 µg/mL) | IC50 (Staphylococcus aureus [4]; [7]): 11.3 µM | IC50 (Staphylococcus aureus [5]): 7.52 µM | MBC (Staphylococcus aureus [5]): 16.4 µM (≈ 9.99 µg/mL) | MIC (Staphylococcus aureus [5]): 16.4 µM (≈ 9.99 µg/mL) | Activity (Vero): Non-toxic | IC90 (Leishmania donovani [1]; Leishmania donovani, 72 h): 28.9 µM | IC50 (Leishmania donovani [1]; [6]): 25.3 µM | IC90 (Leishmania donovani [2]; Leishmania donovani, 72 h): 6.22 µM | IC50 (Leishmania donovani [2]; [6]): 3.02 µM

COc1ccc2[nH]cc(C(c3c(Cl)cccc3Cl)c3c[nH]c4ccc(OC)cc34)c2c1
IC50 [3]: Not Active | MBC [3]: inactive | MIC [3]: inactive | MBC (Staphylococcus aureus [4]): inactive | MIC (Staphylococcus aureus [4]): inactive | IC50 (Staphylococcus aureus [4]; [7]): 17.2 µM | IC50 (Staphylococcus aureus [5]): 7.51 µM | MBC (Staphylococcus aureus [5]): inactive | MIC (Staphylococcus aureus [5]): inactive | Activity (Vero): Non-toxic | IC50 (Leishmania donovani [1]): Not Active | IC90 (Leishmania donovani [1]): inactive | IC50 (Leishmania donovani [2]): Not Active | IC90 (Leishmania donovani [2]): inactive
